Tests used:
Format in all cases: biochemical
PKC theta kinase = PKC theta kinase (Homo sapiens, UniProt Q04759); assay: PKC theta kinase inhibition, coupled-enzyme (NADH absorbance) assay, Ki; conditions: 240 μM ATP, 18 nM PKC theta kinase, 30° C.
Outline: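 Coupled-enzyme kinase assay following NADH absorbance at 340 nm, in 100 mM HEPES pH 7.5, 10 mM MgCl2, 25 mM NaCl, 0.1 mM EDTA, 0.01% Brij. Compound in DMSO preincubated with enzyme 10 min at 30 °C. Ki from initial rates by non-linear regression.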

PKC delta kinase = PKC delta kinase (Homo sapiens, UniProt Q05655); assay: PKC delta kinase inhibition, coupled-enzyme (NADH absorbance) assay, Ki; conditions: 150 μM ATP, 46 nM PKC delta kinase, 30° C.; read-out: Ki PKC delta
Outline: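 PKC delta in 100 mM HEPES pH 7.5, 10 mM MgCl2, 25 mM NaCl, 0.1 mM EDTA, 0.01% Brij, equilibrated 10 min at 30° C with compound from DMSO stock. Started with ATP at 150 μM final; NADH-coupled absorbance at 340 nm followed 15 min at 30° C. Ki from initial rates by non-linear regression.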

PKC alpha kinase = PKC alpha kinase (Homo sapiens, UniProt P17252); assay: PKC alpha kinase inhibition, coupled-enzyme (NADH absorbance) assay, Ki; conditions: 130 μM ATP, 4.5 nM PKC alpha kinase, 30° C.
Outline: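 Enzyme in 100 mM HEPES pH 7.5, 10 mM MgCl2, 100 μM CaCl2, 0.01% Brij, preincubated with compound 10 min at 30 °C. Reaction started with 130 μM ATP (final); NADH consumption followed at 340 nm for 15 min at 30 °C. Ki fitted by non-linear regression of initial rates.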

PKC theta kinase, sequence (Q04759 whole entry): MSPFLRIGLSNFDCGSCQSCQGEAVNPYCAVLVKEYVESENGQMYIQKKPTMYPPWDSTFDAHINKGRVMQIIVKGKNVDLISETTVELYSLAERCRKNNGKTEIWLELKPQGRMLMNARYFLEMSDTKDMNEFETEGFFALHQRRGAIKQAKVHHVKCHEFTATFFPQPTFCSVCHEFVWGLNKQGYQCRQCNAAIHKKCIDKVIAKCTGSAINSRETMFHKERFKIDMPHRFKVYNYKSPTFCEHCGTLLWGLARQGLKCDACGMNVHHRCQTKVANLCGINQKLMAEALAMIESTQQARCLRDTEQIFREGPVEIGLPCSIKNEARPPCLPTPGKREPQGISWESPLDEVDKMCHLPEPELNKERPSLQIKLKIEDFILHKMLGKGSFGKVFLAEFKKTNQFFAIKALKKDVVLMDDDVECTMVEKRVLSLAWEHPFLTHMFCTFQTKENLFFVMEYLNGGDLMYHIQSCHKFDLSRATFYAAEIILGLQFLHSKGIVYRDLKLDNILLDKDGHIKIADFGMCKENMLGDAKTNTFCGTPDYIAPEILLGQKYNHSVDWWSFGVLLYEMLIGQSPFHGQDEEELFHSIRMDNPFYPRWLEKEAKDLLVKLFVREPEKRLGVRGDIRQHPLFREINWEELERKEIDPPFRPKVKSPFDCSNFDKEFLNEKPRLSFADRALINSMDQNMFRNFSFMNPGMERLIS
PKC delta kinase, sequence (Q05655 whole entry): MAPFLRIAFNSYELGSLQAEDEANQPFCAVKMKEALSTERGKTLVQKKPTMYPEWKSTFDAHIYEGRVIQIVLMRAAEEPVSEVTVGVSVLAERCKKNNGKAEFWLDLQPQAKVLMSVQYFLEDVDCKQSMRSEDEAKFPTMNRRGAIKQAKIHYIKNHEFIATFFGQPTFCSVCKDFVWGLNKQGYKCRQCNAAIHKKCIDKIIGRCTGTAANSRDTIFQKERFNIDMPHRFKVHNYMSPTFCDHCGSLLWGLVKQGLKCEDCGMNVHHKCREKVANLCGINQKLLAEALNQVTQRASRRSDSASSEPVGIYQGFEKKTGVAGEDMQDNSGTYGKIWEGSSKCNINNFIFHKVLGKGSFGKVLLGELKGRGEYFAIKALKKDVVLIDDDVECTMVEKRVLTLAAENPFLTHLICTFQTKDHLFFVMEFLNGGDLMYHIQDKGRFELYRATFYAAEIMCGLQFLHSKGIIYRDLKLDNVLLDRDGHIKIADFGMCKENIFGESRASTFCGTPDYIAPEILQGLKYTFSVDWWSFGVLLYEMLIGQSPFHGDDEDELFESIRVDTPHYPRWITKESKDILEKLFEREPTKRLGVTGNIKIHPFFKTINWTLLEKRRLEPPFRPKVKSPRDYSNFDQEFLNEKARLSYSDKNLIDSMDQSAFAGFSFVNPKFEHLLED

| Ki (PKC theta kinase) | Ki (PKC delta kinase) | Ki (PKC alpha kinase) | SMILES |
| --- | --- | --- | --- |
| < 0.5 µM | > 1.25 µM | > 1.25 µM | FC(F)(F)c1ccc(N2CCN[C@@H](CC3CC3)C2)nc1-c1n[nH]c2ncccc12 [Compound 165] |
| > 0.7 µM | > 1.25 µM | > 1.25 µM | O=C1CNCCN1c1cccc(-c2n[nH]c3ncccc23)n1 [Compound 166] |
| < 0.5 µM | > 1.25 µM | > 1.25 µM | CC(C)C(F)(F)C1CN(c2ccc(F)c(-c3n[nH]c4ncccc34)n2)CCN1 (stereo not drawn) [Compound 167] |
| < 0.05 µM | < 0.05 µM | < 0.5 µM | CC(C)C[C@@H]1CN(c2cccc(-c3n[nH]c4ncccc34)n2)CC[C@@H]1N [Compound 169] |
| < 0.05 µM | < 2.8 µM | < 0.5 µM | FC(F)(F)c1ccc(N2CCNC(c3cccc(Cl)c3)C2)nc1-c1n[nH]c2ncccc12 (stereo not drawn) [Compound 170] |
| < 0.5 µM | > 1.25 µM | > 1.25 µM | Fc1ccc(C2CN(c3ccc(C(F)(F)F)c(-c4n[nH]c5ncccc45)n3)CCN2)cc1 (stereo not drawn) [Compound 171] |
| < 0.5 µM | > 1.25 µM | < 2.8 µM | FC(F)(F)c1ccc(N2CCNC(c3cccc(Br)c3)C2)nc1-c1n[nH]c2ncccc12 (stereo not drawn) [Compound 172] |
| > 0.7 µM | > 1.25 µM | > 1.25 µM | FC(F)(F)c1ccc(N2CCNC(c3ccc(Cl)cc3)C2)nc1-c1n[nH]c2ncccc12 (stereo not drawn) [Compound 173] |
| < 0.05 µM | < 0.05 µM | > 1.25 µM | CC(C)(O)[C@@H]1CN(c2cccc(-c3n[nH]c4ncccc34)n2)CCN1 [Compound 176] |
| < 0.001 µM | < 0.05 µM | < 2.8 µM | CC(C)C(C)(O)C1CN(c2cccc(-c3n[nH]c4ncccc34)n2)CCN1 (stereo not drawn) [Compound 177] |
| < 0.05 µM | < 0.5 µM | > 1.25 µM | COC(C)(C)C1CN(c2cccc(-c3n[nH]c4ncccc34)n2)CCN1 (stereo not drawn) [Compound 181] |
| > 0.7 µM | > 1.25 µM | > 1.25 µM | CC(C)C[C@H]1CN(c2ccc(F)c(-c3n[nH]c4ncccc34)n2)C[C@H](C)N1 [Compound 182] |
| < 0.05 µM | < 0.5 µM | < 2.8 µM | CC(C)C[C@H]1CN(c2ccc(F)c(-c3n[nH]c4ncccc34)n2)C[C@@H](C)N1 [Compound 183] |
| < 0.05 µM | < 0.5 µM | > 1.25 µM | COC[C@H]1CN(c2cccc(-c3n[nH]c4ncccc34)n2)CCN1 [Compound 184] |
| < 0.05 µM | < 0.05 µM | < 2.8 µM | OC1(C2CN(c3cccc(-c4n[nH]c5ncccc45)n3)CCN2)CC1 (stereo not drawn) [Compound 186] |
| < 0.05 µM | < 0.05 µM | < 0.5 µM | c1cc(-c2n[nH]c3ncccc23)nc(N2CCNC3(CCC3)C2)c1 [Compound 187] |

| Ki (PKC theta kinase) | Ki (PKC delta kinase) | Ki (PKC alpha kinase) | SMILES |
| --- | --- | --- | --- |
| < 0.05 µM | < 0.5 µM | < 2.8 µM | Fc1ccc(N2CCNC3(CCC3)C2)nc1-c1n[nH]c2ncccc12 [Compound 188] |
| < 0.05 µM | < 0.05 µM | < 0.5 µM | CC(C)CC1(C)CN(c2cccc(-c3n[nH]c4ncccc34)n2)CCC1N (stereo not drawn) [Compound 189] |
| < 0.5 µM | > 1.25 µM | > 1.25 µM | COC(C)(C)C1CN(c2ccc(F)c(-c3n[nH]c4ncccc34)n2)CCN1 (stereo not drawn) [Compound 190] |
| < 0.5 µM | > 1.25 µM | > 1.25 µM | FC(F)(F)c1ccnc2[nH]nc(-c3cccc(N4CCNCC4)n3)c12 [Compound 191] |
| < 0.5 µM | > 1.25 µM | > 1.25 µM | CC(C)C[C@@H]1CN(c2ccc(C(F)(F)F)c(-c3n[nH]c4ncccc34)n2)CCN1 [Compound 193] |
| > 0.7 µM | > 1.25 µM | > 1.25 µM | O=C1CN(c2ccc(C(F)(F)F)c(-c3n[nH]c4ncccc34)n2)CCN1 [Compound 194] |
| < 0.05 µM | < 0.5 µM | < 0.5 µM | CC(C)C[C@@]1(O)CN(c2ccc(C(F)(F)F)c(-c3n[nH]c4ncccc34)n2)CC[C@H]1N [Compound 195] |
| < 0.5 µM | > 1.25 µM | > 1.25 µM | CC(C)CC1(O)CNCCN(c2ccc(F)c(-c3n[nH]c4ncccc34)n2)C1 (stereo not drawn) [Compound 196] |
| < 0.05 µM | < 0.5 µM | > 1.25 µM | CC(C)(C)C1CN(c2ccc(F)c(-c3n[nH]c4ncccc34)n2)CCN1 (stereo not drawn) [Compound 197] |
| < 0.5 µM | > 1.25 µM | > 1.25 µM | CC(C)C[C@@]1(F)CN(c2ccc(C(F)(F)F)c(-c3n[nH]c4ncccc34)n2)CC[C@H]1O [Compound 198] |
| < 0.5 µM | > 1.25 µM | > 1.25 µM | CC(C)C[C@@]1(F)CN(c2ccc(F)c(-c3n[nH]c4ncccc34)n2)CC[C@H]1O [Compound 199] |
| > 0.7 µM | > 1.25 µM | > 1.25 µM | CC(C)C[C@H]1CN(c2ccc(C(F)(F)F)c(-c3n[nH]c4ncccc34)n2)C[C@H](C)N1 [Compound 202] |
| < 0.05 µM | < 0.5 µM | < 0.5 µM | CC(C)C[C@H]1CN(c2ccc(C(F)(F)F)c(-c3n[nH]c4ncccc34)n2)C[C@@H](C)N1 [Compound 203] |
| < 0.05 µM | < 2.8 µM | > 1.25 µM | Fc1ccc(N2CCNC(CC(F)(F)F)C2)nc1-c1n[nH]c2ncccc12 (stereo not drawn) [Compound 206] |
| < 0.05 µM | < 2.8 µM | > 1.25 µM | CC(C)C(O)(C1CN(c2ccc(F)c(-c3n[nH]c4ncccc34)n2)CCN1)C(F)(F)F (stereo not drawn) [Compound 207] |

Continued, molecule first:

| SMILES | Ki (PKC theta kinase) | Ki (PKC delta kinase) | Ki (PKC alpha kinase) |
| --- | --- | --- | --- |
| CC(C)(C)C[C@H]1CN(c2ccc(F)c(-c3n[nH]c4ncccc34)n2)CCN1 [Compound 142] | < 0.05 µM | < 0.5 µM | > 1.25 µM |
| CC(C)C(F)(F)C1CN(c2cccc(-c3n[nH]c4ncccc34)n2)CCN1 (stereo not drawn) [Compound 143] | < 0.5 µM | < 2.8 µM | > 1.25 µM |
| CC(C)C[C@H]1CN(c2cccc(-c3n[nH]c4ncccc34)n2)CC[C@H]1O [Compound 144] | < 0.05 µM | < 2.8 µM | > 1.25 µM |
| CC(C)C[C@H]1CN(c2cccc(-c3n[nH]c4ncccc34)n2)CC[C@@H]1O [Compound 145] | < 0.5 µM | > 1.25 µM | > 1.25 µM |
| CC(C)C[C@H]1CC(F)(c2cccc(-c3n[nH]c4ncccc34)n2)CCN1 (stereo partly drawn) [Compound 146] | < 0.5 µM | < 2.8 µM | > 1.25 µM |
| CCOC[C@H]1CN(c2cccc(-c3n[nH]c4ncccc34)n2)CCN1 [Compound 147] | < 0.5 µM | > 1.25 µM | > 1.25 µM |
| CC(C)(F)C1CN(c2cccc(-c3n[nH]c4ncccc34)n2)CCN1 (stereo not drawn) [Compound 148] | < 0.05 µM | < 0.5 µM | > 1.25 µM |
| CC(C)C[C@H]1CN(c2ccc(Cl)c(-c3n[nH]c4ncccc34)n2)CC[C@H]1N [Compound 149] | < 0.05 µM | < 0.5 µM | < 0.5 µM |
| CC(C)C(F)(F)C1CN(c2ccc(C(F)(F)F)c(-c3n[nH]c4ncccc34)n2)CCN1 (stereo not drawn) [Compound 150] | < 0.5 µM | > 1.25 µM | > 1.25 µM |
| CC(C)(F)CC1CN(c2ccc(F)c(-c3n[nH]c4ncccc34)n2)CCN1 (stereo not drawn) [Compound 151] | < 0.05 µM | < 0.5 µM | > 1.25 µM |
| CC(C)C[C@H]1CN(c2ccc(F)c(-c3n[nH]c4ncccc34)n2)CC[C@H]1N [Compound 152] | < 0.05 µM | < 0.5 µM | < 0.5 µM |
| OCC1CN(c2cccc(-c3n[nH]c4ncccc34)n2)CCN1 (stereo not drawn) [Compound 153] | < 0.5 µM | < 0.5 µM | < 2.8 µM |
| CCC(O)(CC)C1CN(c2cccc(-c3n[nH]c4ncccc34)n2)CCN1 (stereo not drawn) [Compound 154] | < 0.05 µM | < 0.5 µM | < 2.8 µM |
| CC(F)(F)CC1CN(c2ccc(F)c(-c3n[nH]c4ncccc34)n2)CCN1 (stereo not drawn) [Compound 155] | < 0.05 µM | < 0.5 µM | > 1.25 µM |
| OC1([C@@H]2CN(c3nc(-c4n[nH]c5ncccc45)c(F)cc3F)CCN2)CC1 [Compound 156] | < 0.001 µM | < 0.5 µM | > 1.25 µM |
| C1=C(c2cccc(-c3n[nH]c4ncccc34)n2)CCNC1 [Compound 157] | < 0.5 µM | > 1.25 µM | > 1.25 µM |
| c1cc(-c2n[nH]c3ncccc23)nc(C2CCNCC2)c1 [Compound 159] | < 0.5 µM | < 0.5 µM | < 2.8 µM |
| CCC(C)(O)C1CN(c2cccc(-c3n[nH]c4ncccc34)n2)CCN1 (stereo not drawn) [Compound 160] | < 0.05 µM | < 0.5 µM | < 2.8 µM |
| CCC(C)(O)C1CN(c2ccc(F)c(-c3n[nH]c4ncccc34)n2)CCN1 (stereo not drawn) [Compound 161] | < 0.05 µM | < 0.5 µM | > 1.25 µM |
| c1cc(-c2n[nH]c3ncccc23)nc(N2CCN[C@@H](CC3CC3)C2)c1 [Compound 162] | < 0.05 µM | < 0.5 µM | < 2.8 µM |
| Fc1ccc(N2CCN[C@@H](CC3CC3)C2)nc1-c1n[nH]c2ncccc12 [Compound 163] | < 0.05 µM | > 1.25 µM | > 1.25 µM |
| CC(O)C1CN(c2cccc(-c3n[nH]c4ncccc34)n2)CCN1 (stereo not drawn) [Compound 164] | < 0.05 µM | < 0.5 µM | > 1.25 µM |

— patent US9193722B2, “Tri-cyclic pyrazolopyridine kinase inhibitors” (Vertex Pharmaceuticals Incorporated, priority 2008, dated 2015)
